“And” between values parts separate entries of the source, which are not always exact repeats. Identical values can stand only once.
What was measured:
Assay type in all cases: cell-based
fungal spores = assay: Fungicidal activity, GOST 30028.4-2006, resistance of treated materials
Experimental: The fungicidal activity of the proposed salts is determined according to GOST 30028.4-2006 by testing samples of various materials treated with these salts for resistance to fungal spores. Test results in terms of tolerance time (in days) are given in Table 4 wherein tolerance time for untreated materials are given for comparison.

E. coli No. 906 = assay: Bactericidal activity: exposure in solution, neutralization, inoculation on solid medium; set-up: key to Bacterial growth after exposure (colony-forming units in 1 ml): NG—no growth; CG—confluent growth; settings: for Bacterial growth after exposure (colony-forming units in 1 ml): E. coli 906; for Bactericidal effect: E. coli No. 906
S. aureus No. 1257 = assay: as above; set-up: key to Bacterial growth after exposure (colony-forming units in 1 ml): NG—no growth; CG—confluent growth; settings: for Bacterial growth after exposure (colony-forming units in 1 ml): S. aureus 1257; for Bactericidal effect: S. aureus No. 1257
[1] = tested on: clinical strain P. aeruginosa; assay: as above; set-up: key to Bacterial growth after exposure (colony-forming units in 1 ml): NG—no growth; CG—confluent growth; settings: for Bactericidal effect: 4.0%
[2] = Emulsion polyvinyl chloride, additive content 5 wt %, untreated control 6 days
[3] = Paper impregnated with latex SKS 65 GP, additive content 5 wt %, untreated control 4 days

C=CC(=O)[O-].CCCCCCCCCC(=O)[O-].[Cu+2] [Copper acrylate-caprinate]
Tolerance time (fungal spores; [2]): 20 days
Tolerance time (fungal spores; [3]): 19 days
Tolerance time (fungal spores; Paper impregnated with petrolatum base, additive content 5 wt %, untreated control 15 days): 21 days

C=CC(=O)[O-].CCCCCCCCCCCCCCCCCC(=O)[O-].[Cu+2] [Copper acrylate-stearate]
Tolerance time (fungal spores; [2]): 12 days
Tolerance time (fungal spores; [3]): 16 days
Bacterial growth after exposure (colony-forming units in 1 ml) (E. coli No. 906; 2.0 wt %, exposure 5 min): CG
Bacterial growth after exposure (colony-forming units in 1 ml) (E. coli No. 906; 2.0 wt %, exposure 15 min): 100 CFU
Bacterial growth after exposure (colony-forming units in 1 ml) (E. coli No. 906; 2.0 wt %, exposure 30 min): 10 CFU
Bacterial growth after exposure (colony-forming units in 1 ml) (E. coli No. 906; 2.0 wt %, exposure 60 min): NG
Bacterial growth after exposure (colony-forming units in 1 ml) (E. coli No. 906; 4.0 wt %, exposure 5 min): NG
Bacterial growth after exposure (colony-forming units in 1 ml) (E. coli No. 906; 4.0 wt %, exposure 15 min): NG
Bacterial growth after exposure (colony-forming units in 1 ml) (E. coli No. 906; 4.0 wt %, exposure 30 min): NG
Bacterial growth after exposure (colony-forming units in 1 ml) (E. coli No. 906; 4.0 wt %, exposure 60 min): NG
Bactericidal effect (E. coli No. 906; 2.0%, exposure 60 min): sustained bactericidal effect
Bactericidal effect (E. coli No. 906; 4.0%, exposure from 5 min): sustained bactericidal effect
Bacterial growth after exposure (colony-forming units in 1 ml) (S. aureus No. 1257; 2.0 wt %, exposure 5 min): CG
Bacterial growth after exposure (colony-forming units in 1 ml) (S. aureus No. 1257; 2.0 wt %, exposure 15 min): >300 CFU
Bacterial growth after exposure (colony-forming units in 1 ml) (S. aureus No. 1257; 2.0 wt %, exposure 30 min): 25 CFU
Bacterial growth after exposure (colony-forming units in 1 ml) (S. aureus No. 1257; 2.0 wt %, exposure 60 min): NG
Bacterial growth after exposure (colony-forming units in 1 ml) (S. aureus No. 1257; 4.0 wt %, exposure 5 min): NG
Bacterial growth after exposure (colony-forming units in 1 ml) (S. aureus No. 1257; 4.0 wt %, exposure 15 min): NG
Bacterial growth after exposure (colony-forming units in 1 ml) (S. aureus No. 1257; 4.0 wt %, exposure 30 min): NG
Bacterial growth after exposure (colony-forming units in 1 ml) (S. aureus No. 1257; 4.0 wt %, exposure 60 min): NG
Bactericidal effect (S. aureus No. 1257; 2.0%, exposure 60 min): sustained bactericidal effect
Bactericidal effect (S. aureus No. 1257; 4.0%, exposure from 5 min): sustained bactericidal effect
Bacterial growth after exposure (colony-forming units in 1 ml) ([1]; 2.0 wt %, exposure 5 min): CG
Bacterial growth after exposure (colony-forming units in 1 ml) ([1]; 2.0 wt %, exposure 15 min): CG
Bacterial growth after exposure (colony-forming units in 1 ml) ([1]; 2.0 wt %, exposure 30 min): CG
Bacterial growth after exposure (colony-forming units in 1 ml) ([1]; 2.0 wt %, exposure 60 min): CG
Bactericidal effect ([1]; exposure of more than 30 min): bactericidal effect
Bacterial growth after exposure (colony-forming units in 1 ml) ([1]; 4.0 wt %, exposure 5 min): CG
Bacterial growth after exposure (colony-forming units in 1 ml) ([1]; 4.0 wt %, exposure 15 min): >300 CFU
Bacterial growth after exposure (colony-forming units in 1 ml) ([1]; 4.0 wt %, exposure 60 min): NG

C/C=C/C(=O)[O-].C=CC(=O)[O-].[Zn+2] [Zinc acrylate-crotonate, zinc acrylate-crotonate]
Bacterial growth after exposure (colony-forming units in 1 ml) (E. coli No. 906; 2.0 wt %, exposure 5 min): 75 CFU
Bacterial growth after exposure (colony-forming units in 1 ml) (E. coli No. 906; 2.0 wt %, exposure 15 min): 42 CFU
Bacterial growth after exposure (colony-forming units in 1 ml) (E. coli No. 906; 2.0 wt %, exposure 30 min): >300 CFU
Bacterial growth after exposure (colony-forming units in 1 ml) (E. coli No. 906; 4.0 wt %, exposure 5 min): NG
Bacterial growth after exposure (colony-forming units in 1 ml) (E. coli No. 906; 4.0 wt %, exposure 15 min): NG
Bacterial growth after exposure (colony-forming units in 1 ml) (E. coli No. 906; 4.0 wt %, exposure 30 min): NG
Bacterial growth after exposure (colony-forming units in 1 ml) (E. coli No. 906; 4.0 wt %, exposure 60 min): NG
Bactericidal effect (E. coli No. 906; 4.0%, exposure from 15 min): sustained bactericidal effect
Bacterial growth after exposure (colony-forming units in 1 ml) (S. aureus No. 1257; 2.0 wt %, exposure 5 min): CG
Bacterial growth after exposure (colony-forming units in 1 ml) (S. aureus No. 1257; 2.0 wt %, exposure 15 min): CG
Bacterial growth after exposure (colony-forming units in 1 ml) (S. aureus No. 1257; 2.0 wt %, exposure 30 min): CG
Bacterial growth after exposure (colony-forming units in 1 ml) (S. aureus No. 1257; 2.0 wt %, exposure 60 min): >300 CFU
Bacterial growth after exposure (colony-forming units in 1 ml) (S. aureus No. 1257; 4.0 wt %, exposure 5 min): 7 CFU
Bacterial growth after exposure (colony-forming units in 1 ml) (S. aureus No. 1257; 4.0 wt %, exposure 15 min): NG
Bacterial growth after exposure (colony-forming units in 1 ml) (S. aureus No. 1257; 4.0 wt %, exposure 30 min): NG
Bacterial growth after exposure (colony-forming units in 1 ml) (S. aureus No. 1257; 4.0 wt %, exposure 60 min): NG
Bactericidal effect (S. aureus No. 1257; 4.0%, exposure from 15 min): sustained bactericidal effect
Bacterial growth after exposure (colony-forming units in 1 ml) ([1]; 2.0 wt %, exposure 5 min): >300 CFU
Bacterial growth after exposure (colony-forming units in 1 ml) ([1]; 2.0 wt %, exposure 15 min): 10 CFU
Bacterial growth after exposure (colony-forming units in 1 ml) ([1]; 2.0 wt %, exposure 30 min): 4 CFU
Bactericidal effect ([1]; exposure from 15 min): sustained bactericidal effect
Bacterial growth after exposure (colony-forming units in 1 ml) ([1]; 4.0 wt %, exposure 5 min): 1 CFU
Bacterial growth after exposure (colony-forming units in 1 ml) ([1]; 4.0 wt %, exposure 15 min): NG
Bacterial growth after exposure (colony-forming units in 1 ml) ([1]; 4.0 wt %, exposure 30 min): NG
Bacterial growth after exposure (colony-forming units in 1 ml) ([1]; 4.0 wt %, exposure 60 min): NG

C=CC(=O)[O-].CCCCCCCCCCC(=O)[O-].[Zn+2] [Zinc acrylate-undecylate]
Tolerance time (fungal spores; [2]): 10 days
Tolerance time (fungal spores; [3]): 12 days
Tolerance time (fungal spores; Paper impregnated with petrolatum base, additive content 4.7 wt %, untreated control 15 days): 20 days

Copper methacrylate-sorbate
Bacterial growth after exposure (colony-forming units in 1 ml) (E. coli No. 906; 2.0 wt %, exposure 5 min): >300 CFU
Bacterial growth after exposure (colony-forming units in 1 ml) (E. coli No. 906; 2.0 wt %, exposure 15 min): 78 CFU
Bacterial growth after exposure (colony-forming units in 1 ml) (E. coli No. 906; 2.0 wt %, exposure 30 min): 45 CFU and 53 CFU
Bacterial growth after exposure (colony-forming units in 1 ml) (E. coli No. 906; 2.0 wt %, exposure 60 min): 5 CFU and 4 CFU
Bacterial growth after exposure (colony-forming units in 1 ml) (E. coli No. 906; 4.0 wt %, exposure 5 min): 1 CFU
Bacterial growth after exposure (colony-forming units in 1 ml) (E. coli No. 906; 4.0 wt %, exposure 15 min): NG
Bacterial growth after exposure (colony-forming units in 1 ml) (E. coli No. 906; 4.0 wt %, exposure 30 min): NG
Bacterial growth after exposure (colony-forming units in 1 ml) (E. coli No. 906; 4.0 wt %, exposure 60 min): NG
Bactericidal effect (E. coli No. 906; 4.0%, exposure from 15 min): sustained bactericidal effect
Bacterial growth after exposure (colony-forming units in 1 ml) (S. aureus No. 1257; 2.0 wt %, exposure 5 min): >300 CFU
Bacterial growth after exposure (colony-forming units in 1 ml) (S. aureus No. 1257; 2.0 wt %, exposure 15 min): 85 CFU
Bacterial growth after exposure (colony-forming units in 1 ml) (S. aureus No. 1257; 2.0 wt %, exposure 30 min): 35 CFU and 43 CFU
Bacterial growth after exposure (colony-forming units in 1 ml) (S. aureus No. 1257; 4.0 wt %, exposure 5 min): NG
Bacterial growth after exposure (colony-forming units in 1 ml) (S. aureus No. 1257; 4.0 wt %, exposure 15 min): NG
Bacterial growth after exposure (colony-forming units in 1 ml) (S. aureus No. 1257; 4.0 wt %, exposure 30 min): NG
Bacterial growth after exposure (colony-forming units in 1 ml) (S. aureus No. 1257; 4.0 wt %, exposure 60 min): NG
Bactericidal effect (S. aureus No. 1257; 4.0%, exposure from 15 min): sustained bactericidal effect
Bactericidal effect ([1]; exposure from 15 min): sustained bactericidal effect

Copper methacrylate-valerate
Tolerance time (fungal spores; [2]): 16 days

Zinc methacrylate-butyrate
Tolerance time (fungal spores; [2]): 11 days
Tolerance time (fungal spores; [3]): 10 days

Zinc methacrylate-myristate
Tolerance time (fungal spores; [2]): 12 days
